Assay [1] deals with BRCA-1 silenced HeLa cells (HeLa shBRCA1-GFP). Briefly: Proliferation assay in BRCA-1 silenced HeLa cells. Type of assay: cell-based. The conditions noted are these: Homo sapiens; BRCA1 silenced HeLa cells, 168 hours; read-out: CC50 in the BRCA1 silenced HeLa cells. In outline: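 Antiproliferative effect was read by Celltiter Blue fluorescence after 168 h of compound treatment at 37° C., 5% CO2. Cells were matched HeLa pairs, BRCA1-shRNA (>80% silenced, GFP) versus non-shRNA vector control, in DMEM with 10% FCS.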

Another assay has as its target T1, PARP-1 (Homo sapiens, UniProt P09874).
T1 construct: purchased Trevigen 4668-500-01
Briefly: PARP-1 SPA assay. Type of assay: biochemical. The method, then:
Assay buffer: 100 mM Tris pH 8, 4 mM MgCl2, 4 mM Spermine, 200 mM KCl, 0.04% Nonidet P-40.
Nicotinamide-adenine dinucleotide (NAD)/DNA Mix: [^3H-NAD] (250 uCi/ml, 0.4 ul, Perkin-Elmer NET-443H), NAD (1.5 mM, 0.05 ul, SIGMA N-1511), Biotinylated-NAD (250 uM, 0.03 ul, Trevigen 4670-500-01), Activated calf thymus (1 mg/ml, 0.05 ul, Amersham Biosciences 27-4575), H2O (to 10 ul).
Developing Mix: Streptavidin SPA beads (5 mg/ml, Amersham Biosciences RPNQ 0007) dissolved in 500 mM EDTA.
The reaction is performed in 96-well microplate with a final volume of 50 uL/well. Add 5 ul 5% DMSO/compound solution, add enzyme mix (35 ul), start the reaction by adding NAD/DNA mix (10 uL) and incubate for 2 hrs at RT. Stop the reaction by adding developing mix (25 ul) and incubate 15 min at RT. Measure using a Packard TOP COUNT instrument.

pIC50: −log10 of the molar value. Counter-ions that a name gives are not always drawn.

T1 sequence (P09874 whole entry): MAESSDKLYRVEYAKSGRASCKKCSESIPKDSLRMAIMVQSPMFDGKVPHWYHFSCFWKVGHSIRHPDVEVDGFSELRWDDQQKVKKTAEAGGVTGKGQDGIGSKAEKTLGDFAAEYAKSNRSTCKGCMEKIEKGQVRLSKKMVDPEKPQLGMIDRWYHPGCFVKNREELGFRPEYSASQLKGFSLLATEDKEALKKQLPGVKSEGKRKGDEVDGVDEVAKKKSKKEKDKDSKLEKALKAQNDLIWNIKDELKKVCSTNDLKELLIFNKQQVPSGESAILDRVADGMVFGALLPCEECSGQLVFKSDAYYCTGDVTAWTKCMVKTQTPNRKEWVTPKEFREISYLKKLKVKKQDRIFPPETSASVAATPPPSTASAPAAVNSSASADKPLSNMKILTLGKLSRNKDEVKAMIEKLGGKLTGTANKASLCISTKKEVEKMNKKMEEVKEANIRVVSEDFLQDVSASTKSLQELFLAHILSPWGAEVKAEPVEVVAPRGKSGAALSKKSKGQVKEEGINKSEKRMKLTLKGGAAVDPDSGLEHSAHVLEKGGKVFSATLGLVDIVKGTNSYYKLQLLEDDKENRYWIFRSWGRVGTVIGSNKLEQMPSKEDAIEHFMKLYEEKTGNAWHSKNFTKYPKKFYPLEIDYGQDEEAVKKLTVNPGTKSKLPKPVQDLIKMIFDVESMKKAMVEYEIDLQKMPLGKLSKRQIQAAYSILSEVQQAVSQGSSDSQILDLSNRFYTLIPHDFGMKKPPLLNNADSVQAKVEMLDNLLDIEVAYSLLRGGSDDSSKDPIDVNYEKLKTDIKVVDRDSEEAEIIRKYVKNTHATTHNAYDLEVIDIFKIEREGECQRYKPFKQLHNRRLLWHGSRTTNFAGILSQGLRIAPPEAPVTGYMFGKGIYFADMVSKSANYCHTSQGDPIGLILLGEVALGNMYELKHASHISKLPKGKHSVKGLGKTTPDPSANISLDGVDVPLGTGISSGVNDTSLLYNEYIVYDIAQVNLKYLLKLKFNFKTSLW

`Cc1c(Cc2ccc(F)c(C(=O)N3CC(=O)N(c4ccccc4)C(C)C3)c2)n[nH]c(=O)c1C` (racemic) [Example 78 (LL4), 3-[4-Fluoro-3-(3-methyl-5-oxo-4-phenyl-piperazine-1-carbonyl)-benzyl]-4,5-dimethyl-6-oxo-1,6-dihydro-pyridazin-1-ium trifluoroacetate]: the CC50 in assay [1] is below 50 nM. The same compound gave a pIC50 at PARP-1 above 8.30.

For `Cc1c(Cc2ccc(F)c(C(=O)N3CC(=O)N(c4ccc(F)cc4)C(C)C3)c2)n[nH]c(=O)c1C` (racemic) [Example 79, 3-{4-Fluoro-3-[4-(4-fluoro-phenyl)-3-methyl-5-oxo-piperazine-1-carbonyl]-benzyl}-4,5-dimethyl-6-oxo-1,6-dihydro-pyridazin-1-ium trifluoroacetate], the CC50 in assay [1] is below 50 nM. The compound also showed a pIC50 at PARP-1 above 8.30.

As to `C[C@@H]1CCC[C@H]2CN(C(=O)c3cc(Cc4cc(C(F)(F)F)c(=O)[nH]n4)ccc3F)CC(=O)N21` (racemic) [Example 87, 6-{4-Fluoro-3-[(cis-6-methyl-4-oxooctahydro-2H-pyrido[1,2-a]pyrazin-2-yl)carbonyl]benzyl}-3-oxo-4-(trifluoromethyl)-2,3-dihydropyridazin-1-ium trifluoroacetate], the CC50 in assay [1] is below 50 nM. Also, at PARP-1, the pIC50 was 7.60 to 8.30.

On to `O=C(c1cc(Cc2cc(C(F)(F)F)c(=O)[nH]n2)ccc1F)N1CC(=O)N2CCCCC2C1` (racemic) [Example 91, 2-(2-Fluoro-5-{[6-oxo-5-(trifluoromethyl)-1,6-dihydropyridazin-3-yl]methyl}benzoyl)octahydro-4H-pyrido[1,2-a]pyrazin-4-one], for which the CC50 in assay [1] was 50 to 500 nM. Moreover, the pIC50 against PARP-1 was 7.60 to 8.30.

In the case of `Cc1c(Cc2ccc(F)c(C(=O)N3CCN([C@H]4CC[C@@H](F)C4)C(=O)C3)c2)n[nH]c(=O)c1C` (relative stereo) [Example 80, cis-3-{4-Fluoro-3-[4-(3-fluoro-cyclopentyl)-3-oxo-piperazine-1-carbonyl]-benzyl}-4,5-dimethyl-6-oxo-1,6-dihydro-pyridazin-1-ium trifluoroacetate], the CC50 in assay [1] lay in the range of 50 to 500 nM. For the same compound, the pIC50 on PARP-1 was above 8.30.

As to `Cc1c(Cc2ccc(F)c(C(=O)N3CC(=O)N(c4ccccc4)[C@@H](C)C3)c2)n[nH]c(=O)c1C` (single isomer, unassigned) [78 (LL4A)], the CC50 in assay [1] is 50 to 500 nM. The pIC50 on PARP-1 was 7.60 to 8.30.

`O=C(c1cc(Cc2cc(C(F)(F)F)c(=O)[nH]n2)ccc1F)N1CC(=O)N2CCCC[C@H]2C1` (single isomer, unassigned) [92 (ZZ1)]: the CC50 in assay [1] is below 5000 nM. For the same compound, the pIC50 against PARP-1 was above 8.30.

As for `O=C(c1cc(Cc2cc(C(F)(F)F)c(=O)[nH]n2)ccc1F)N1CC(=O)N2CCCC[C@@H]2C1` (single isomer, unassigned) [92 (ZZ2)], the CC50 in assay [1] was 50 to 500 nM. Moreover, on PARP-1, the negative logarithm of the IC50 (pIC50) is 7.60 to 8.30.

Regarding `Cc1c(Cc2ccc(F)c(C(=O)N3CC(=O)N(c4ccccc4)[C@H](C)C3)c2)n[nH]c(=O)c1C` (single isomer, unassigned) [Example 78 (LL4B)], the CC50 in assay [1] was below 50 nM. Moreover, the negative-log IC50 (pIC50) at PARP-1 was above 8.30.

`Cc1c(Cc2ccc(F)c(C(=O)N3CCN(c4ccccn4)C(=O)C3)c2)n[nH]c(=O)c1C` [Example 31, 3-{4-Fluoro-3-[(3-oxo-4-pyridin-2-ylpiperazin-1-yl)carbonyl]benzyl}-4,5-dimethyl-6-oxo-1,6-dihydropyridazin-1-ium trifluoroacetate]: in assay [1], the CC50 was below 5000 nM. For the same compound, the pIC50 on PARP-1 was 7.60 to 8.30.

As to `Cc1c(Cc2ccc(F)c(C(=O)N3CC(=O)N4CCCCC4C3)c2)n[nH]c(=O)c1C` (stereo not drawn) [Example 32, 6-{4-Fluoro-3-[(4-oxooctahydro-2H-pyrido[1,2-a]pyrazin-2-yl)carbonyl]benzyl}-4,5-dimethyl-3-oxo-2,3-dihydropyridazin-1-ium trifluoroacetate], in assay [1], the CC50 was below 50 nM. On PARP-1, this compound gave a pIC50 of 7.60 to 8.30.

Take `O=C(c1cc(Cc2cc(C(F)(F)F)c(=O)[nH]n2)ccc1F)N1CCN(C2CCCC2)C(=O)C1` [Example 33, 6-{3-[(4-Cyclopentyl-3-oxopiperazin-1-yl)carbonyl]-4-fluorobenzyl}-3-oxo-4-(trifluoromethyl)-2,3-dihydropyridazin-1-ium trifluoroacetate]: the CC50 in assay [1] was in the range of 50 to 500 nM. Also, the pIC50 against PARP-1 is above 8.30.

With `Cc1c(Cc2ccc(F)c(C(=O)N3CCN(C4CCCCC4)C(=O)C3C)c2)n[nH]c(=O)c1C` (stereo not drawn) [Example 35, 6-{3-[(4-Cyclohexyl-2-methyl-3-oxopiperazin-1-yl)carbonyl]-4-fluorobenzyl}-4,5-dimethyl-3-oxo-2,3-dihydropyridazin-1-ium trifluoroacetate], in assay [1], the CC50 is below 5000 nM. Also, on PARP-1, the pIC50 was 7.60 to 8.30.

As for `Cc1c(Cc2ccc(F)c(C(=O)N3CCC(=O)N(C(C)C)CC3)c2)n[nH]c(=O)c1C` [Example 36, 6-{4-Fluoro-3-[(4-isopropyl-5-oxo-1,4-diazepan-1-yl)carbonyl]benzyl}-4,5-dimethyl-3-oxo-2,3-dihydropyridazin-1-ium trifluoroacetate], the CC50 in assay [1] was below 5000 nM. The pIC50 at PARP-1 was 7.60 to 8.30.

Regarding `Cc1c(Cc2ccc(F)c(C(=O)N3CCN(c4cccnc4)C(=O)C3)c2)n[nH]c(=O)c1C` [Example 38, 6-{4-Fluoro-3-[(3-oxo-4-pyridin-3-ylpiperazin-1-yl)carbonyl]benzyl}-4,5-dimethylpyridazin-3(2H)-one], the CC50 in assay [1] is 50 to 500 nM. The compound also showed a pIC50 against PARP-1 above 8.30.

Regarding `CCc1c(Cc2ccc(F)c(C(=O)N3CCN(C4CCCCC4)C(=O)C3)c2)n[nH]c(=O)c1C(F)(F)F` [Example 39, 6-{3-[(4-Cyclohexyl-3-oxopiperazin-1-yl)carbonyl]-4-fluorobenzyl}-5-ethyl-4-(trifluoromethyl)pyridazin-3(2H)-one trifluoroacetate], the CC50 in assay [1] is below 50 nM. In addition, at PARP-1, the pIC50 was above 8.30.

For `Cc1c(Cc2ccc(F)c(C(=O)N3CCN(c4ccc(F)cc4)C(=O)C3)c2)n[nH]c(=O)c1C` [Example 40, 6-(4-Fluoro-3-{[4-(4-fluorophenyl)-3-oxopiperazin-1-yl]carbonyl}benzyl)-4,5-dimethyl-3-oxo-2,3-dihydropyridazin-1-ium trifluoroacetate], the CC50 in assay [1] is 50 to 500 nM. Moreover, at PARP-1, the pIC50 is 7.60 to 8.30.

For `Cc1c(Cc2ccc(F)c(C(=O)N3CCN(C4CCC(F)(F)CC4)C(=O)C3)c2)n[nH]c(=O)c1C` [Example 48, 6-(3-{[4-(4,4-Difluorocyclohexyl)-3-oxopiperazin-1-yl]carbonyl}-4-fluorobenzyl)-4,5-dimethyl-3-oxo-2,3-dihydropyridazin-1-ium trifluoroacetate], in assay [1], the CC50 fell in the range of 50 to 500 nM. This compound had a pIC50 on PARP-1 of 7.60 to 8.30.

With `Cc1c(Cc2ccc(F)c(C(=O)N3CCN(C4CCC(F)(F)C4)C(=O)C3)c2)n[nH]c(=O)c1C` (stereo not drawn) [Example 49, 6-(3-{[4-(3,3-Difluorocyclopentyl)-3-oxopiperazin-1-yl]carbonyl}-4-fluorobenzyl)-4,5-dimethyl-3-oxo-2,3-dihydropyridazin-1-ium trifluoroacetate], the CC50 in assay [1] is below 50 nM. In addition, the negative logarithm of the IC50 (pIC50) at PARP-1 is above 8.30.

For the compound `Cc1c(Cc2ccc(F)c(C(=O)N3CCN(C4CCC(C)(C)CC4)C(=O)C3)c2)n[nH]c(=O)c1C` [Example 50, 6-(3-{[4-(4,4-Dimethylcyclohexyl)-3-oxopiperazin-1-yl]carbonyl}-4-fluorobenzyl)-4,5-dimethyl-3-oxo-2,3-dihydropyridazin-1-ium trifluoroacetate], the CC50 in assay [1] was below 50 nM. This compound also had a pIC50 at PARP-1 of 7.60 to 8.30.

In the case of `Cc1c(Cc2ccc(F)c(C(=O)N3CCN(C4CCCC(C)(C)C4)C(=O)C3)c2)n[nH]c(=O)c1C` (stereo not drawn) [Example 51, 6-(3-{[4-(3,3-Dimethylcyclohexyl)-3-oxopiperazin-1-yl]carbonyl}-4-fluorobenzyl)-4,5-dimethyl-3-oxo-2,3-dihydropyridazin-1-ium trifluoroacetate], the CC50 in assay [1] was in the range of 50 to 500 nM. Also, the pIC50 against PARP-1 is 7.60 to 8.30.

In turn, `Cc1c(Cc2ccc(F)c(C(=O)N3CCCN(C4CC4)C(=O)C3)c2)n[nH]c(=O)c1C` [Example 82, 1-Cyclopropyl-4-{5-[(4,5-dimethyl-6-oxo-1,6-dihydropyridazin-3-yl)methyl]-2-fluorobenzoyl}-1,4-diazepan-2-one] showed a pIC50 on PARP-1 of 6.82 to 7.60.

In the case of `Cc1c(Cc2ccc(F)c(C(=O)N3CC(=O)N(C4CCCCC4)CC3(C)C)c2)n[nH]c(=O)c1C` [Example 93, 3-{3-[(4-Cyclohexyl-2,2-dimethyl-5-oxopiperazin-1-yl)carbonyl]-4-fluorobenzyl}-4,5-dimethyl-6-oxo-1,6-dihydropyridazin-1-ium trifluoroacetate], on PARP-1, the pIC50 is 6.82 to 7.60.

In turn, `CCN1CCN(C(=O)c2cc(Cc3n[nH]c(=O)c(C(F)(F)F)c3C)ccc2F)CC1=O` [Example 143, 6-{3-[(4-Ethyl-3-oxopiperazin-1-yl)carbonyl]-4-fluorobenzyl}-5-methyl-4-(trifluoromethyl)pyridazin-3(2H)-one] had a pIC50 against PARP-1 of 7.60 to 8.30.

The record behind these values is patent US8268827B2, “Pyridazinone derivatives as PARP inhibitors” (Istituto di Ricerche di Biologia Molecolare P. Angeletti …, priority 2007, dated 2012).
